# Active and inactive are the calls of the source. The calls are words filed in the database; no cut-off is given here.
# What was measured:
# [1] = Toxicity in BALB/c mouse xenografted with human HCT-116 cells assessed as change in lung weight at 20 mg/kg,ip administrated for 2 weeks; assay type: organism-based; settings: in vivo, 336 h
# [2] = Toxicity in BALB/c mouse xenografted with human HCT-116 cells assessed as change in spleen weight at 10 mg/kg,ip administrated for 2 weeks; assay type: organism-based; settings: in vivo, 336 h
# [3] = Toxicity in BALB/c mouse xenografted with human HCT-116 cells assessed as change in heart weight at 10 mg/kg,ip administrated for 2 weeks; assay type: organism-based; settings: in vivo, 336 h
# [4] = Toxicity in BALB/c mouse xenografted with human HCT-116 cells assessed as histopathological change in liver at 20 mg/kg,ip administrated for 2 weeks by hematoxylin and eosin staining based analysis; assay type: organism-based; settings: in vivo, 336 h
# [5] = target: Fibroblast growth factor receptor 1 (Homo sapiens, UniProt P11362); experiment: Inhibition of FGFR1 (unknown origin) kinase activity
# Sequence of Fibroblast growth factor receptor 1 (P11362 whole entry): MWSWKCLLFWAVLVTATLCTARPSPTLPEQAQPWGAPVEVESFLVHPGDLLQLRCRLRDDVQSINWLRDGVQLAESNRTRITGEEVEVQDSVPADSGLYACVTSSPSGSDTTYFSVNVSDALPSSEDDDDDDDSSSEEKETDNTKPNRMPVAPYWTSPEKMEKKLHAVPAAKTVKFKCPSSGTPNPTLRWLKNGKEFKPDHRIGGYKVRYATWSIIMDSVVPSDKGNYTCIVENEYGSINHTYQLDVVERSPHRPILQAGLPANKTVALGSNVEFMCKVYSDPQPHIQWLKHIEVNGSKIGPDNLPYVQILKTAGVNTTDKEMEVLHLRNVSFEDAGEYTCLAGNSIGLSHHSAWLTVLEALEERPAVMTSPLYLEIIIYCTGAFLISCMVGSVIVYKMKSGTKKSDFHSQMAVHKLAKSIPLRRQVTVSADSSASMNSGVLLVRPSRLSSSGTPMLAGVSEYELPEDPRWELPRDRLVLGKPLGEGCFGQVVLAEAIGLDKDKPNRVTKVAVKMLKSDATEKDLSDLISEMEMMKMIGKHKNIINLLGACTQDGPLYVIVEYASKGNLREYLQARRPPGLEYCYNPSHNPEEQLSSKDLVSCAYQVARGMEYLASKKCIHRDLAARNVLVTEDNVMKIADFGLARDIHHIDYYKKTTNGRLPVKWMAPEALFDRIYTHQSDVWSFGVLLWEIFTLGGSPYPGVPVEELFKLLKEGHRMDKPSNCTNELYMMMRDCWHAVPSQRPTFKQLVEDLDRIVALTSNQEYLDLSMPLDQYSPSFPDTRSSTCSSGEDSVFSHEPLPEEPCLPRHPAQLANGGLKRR
# [6] = system: HCT-116; experiment: Antitumor activity against human HCT-116 cells xenografted in BALB/c mouse assessed as tumor growth inhibition at 20 mg/kg,ip administrated for 2 weeks relative to control; assay type: functional; settings: HCT-116, 336 h, read-out: TGI
# [7] = system: RKO; experiment: Induction of cell cycle arrest in human RKO cells assessed as downregulation of CDC2 expression at 1.5 to 6 uM by immunoblotting analysis; assay type: functional, cell-based; settings: dose 1.5-6 µM
# [8] = system: BaF3; experiment: Antiproliferative activity against mouse BaF3 transfected with FGFR4 assessed as inhibition of cell growth incubated for 72 hrs by CCK-8 assay; assay type: toxicity, cell-based; settings: BaF3, 72 h
# [9] = system: SW480; experiment: Antiproliferative activity against human SW480 cells assessed as inhibition of cell growth incubated for 48 hrs by EdU staining method; assay type: functional, cell-based
# [10] = Toxicity in ICR mouse assessed as change in lung weight at 20 mg/kg,po administrated for 1 week; assay type: organism-based; settings: in vivo, 168 h, time 1 weeks
# [11] = Toxicity in ICR mouse assessed as change in heart weight at 20 mg/kg,po administrated for 1 week; assay type: organism-based; settings: in vivo, 168 h, time 1 weeks
# [12] = Toxicity in BALB/c mouse xenografted with human HCT-116 cells assessed as change in serum creatinine level at 10 mg/kg,ip administrated for 2 weeks; assay type: organism-based; settings: in vivo, 336 h
# [13] = system: HCT-116; experiment: Induction of apoptosis in human HCT-116 cells at 3 to 12 uM incubated for 48 hrs by Annexin V-FITC/PI staining based flow cytometric analysis relative to control; assay type: functional; settings: dose 3-12 µM
# [14] = system: HCT-116; experiment: cells; settings: Homo sapiens, HCT-116, 48 h
# Description: Antiproliferative activity against human HCT-116 cells assessed as inhibition of cell growth incubated for 48 hrs by MTT assay
# [15] = Antiproliferative activity against human Intestinal epithelial cell assessed as inhibition of cell growth incubated for 48 hrs by MTT assay; assay type: toxicity, cell-based; settings: human intestinal epithelial cells
# [16] = system: HCT-116; experiment: Antitumor activity against human HCT-116 cells xenografted in BALB/c mouse assessed as change in cell morphology at 10 mg/kg,ip administrated for 2 weeks by hematoxylin and eosin staining based analysis; assay type: functional, organism-based
# [17] = system: RKO; experiment: Anti-migration activity in human RKO cells assessed as change in N-cad expression at 3 to 12 uM by Western blotting analysis; assay type: functional, cell-based; settings: dose 3-12 µM
# [18] = Toxicity in BALB/c mouse xenografted with human HCT-116 cells assessed as histopathological change in kidney at 20 mg/kg,ip administrated for 2 weeks by hematoxylin and eosin staining based analysis; assay type: organism-based; settings: in vivo, 336 h
# [19] = system: HCT-116; experiment: Induction of apoptosis in human HCT-116 cells assessed as downregulation of ratio of Bcl-2/Bax expression at 3 to 12 uM incubated for 48 hrs by Western blotting analysis; assay type: functional, cell-based; settings: dose 3-12 µM
# [20] = system: HCT-116; experiment: Antitumor activity against human HCT-116 cells xenografted in BALB/c mouse assessed as decrease in Ki67 expression in tumor tissue at ip administrated for 2 weeks by immunohistochemical analysis; assay type: functional, organism-based
# [21] = system: RKO; experiment: Anti-migration activity in human RKO cells assessed as loss of actin cytoskeletal fibers at 3 to 12 uM by immunofluorescence assay; assay type: functional, cell-based; settings: dose 3-12 µM
# [22] = Toxicity in BALB/c mouse xenografted with human HCT-116 cells assessed as change in body weight at 20 mg/kg,ip administrated for 2 weeks; assay type: organism-based; settings: in vivo, 336 h
# [23] = target: Fibroblast growth factor receptor 3 (Homo sapiens, UniProt P22607); experiment: Inhibition of FGFR3 (unknown origin) kinase activity
# Sequence of Fibroblast growth factor receptor 3 (P22607 whole entry): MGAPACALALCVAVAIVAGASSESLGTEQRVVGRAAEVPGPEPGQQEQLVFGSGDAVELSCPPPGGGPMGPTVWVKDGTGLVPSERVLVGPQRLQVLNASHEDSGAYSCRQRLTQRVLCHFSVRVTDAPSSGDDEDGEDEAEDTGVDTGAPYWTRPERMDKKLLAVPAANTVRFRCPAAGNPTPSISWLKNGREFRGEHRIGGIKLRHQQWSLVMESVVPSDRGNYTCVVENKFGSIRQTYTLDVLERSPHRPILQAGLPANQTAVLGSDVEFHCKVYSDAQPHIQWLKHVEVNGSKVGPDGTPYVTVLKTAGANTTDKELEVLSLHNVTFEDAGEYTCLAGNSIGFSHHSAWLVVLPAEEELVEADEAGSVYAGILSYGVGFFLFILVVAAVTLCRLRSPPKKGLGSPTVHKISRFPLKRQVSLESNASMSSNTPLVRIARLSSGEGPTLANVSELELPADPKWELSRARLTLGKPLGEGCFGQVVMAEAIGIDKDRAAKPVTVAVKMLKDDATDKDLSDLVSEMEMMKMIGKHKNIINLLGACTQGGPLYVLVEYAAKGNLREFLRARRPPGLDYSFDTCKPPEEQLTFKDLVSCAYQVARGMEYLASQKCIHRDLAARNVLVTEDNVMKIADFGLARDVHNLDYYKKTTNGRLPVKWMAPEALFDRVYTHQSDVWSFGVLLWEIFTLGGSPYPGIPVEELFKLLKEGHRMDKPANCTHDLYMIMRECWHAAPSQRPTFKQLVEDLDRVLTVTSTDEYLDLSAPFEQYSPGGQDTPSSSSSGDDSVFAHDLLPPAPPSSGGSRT
# [24] = Toxicity in ICR mouse assessed as change in heart weight at 60 mg/kg,po administrated for 1 week; assay type: organism-based; settings: in vivo, 168 h, time 1 weeks
# [25] = system: HCT-116; experiment: Anti-migration activity in human HCT-116 cells assessed as loss of actin cytoskeletal fibers at 3 to 12 uM by immunofluorescence assay; assay type: functional, cell-based; settings: dose 3-12 µM
# [26] = system: HCT-116; experiment: Antitumor activity against human HCT-116 cells xenografted in BALB/c mouse assessed as change in cell morphology at 20 mg/kg,ip administrated for 2 weeks by hematoxylin and eosin staining based analysis; assay type: functional, organism-based
# [27] = target: Fibroblast growth factor receptor 2 (Homo sapiens, UniProt P21802); experiment: Inhibition of FGFR2 (unknown origin) kinase activity
# Sequence of Fibroblast growth factor receptor 2 (P21802 whole entry): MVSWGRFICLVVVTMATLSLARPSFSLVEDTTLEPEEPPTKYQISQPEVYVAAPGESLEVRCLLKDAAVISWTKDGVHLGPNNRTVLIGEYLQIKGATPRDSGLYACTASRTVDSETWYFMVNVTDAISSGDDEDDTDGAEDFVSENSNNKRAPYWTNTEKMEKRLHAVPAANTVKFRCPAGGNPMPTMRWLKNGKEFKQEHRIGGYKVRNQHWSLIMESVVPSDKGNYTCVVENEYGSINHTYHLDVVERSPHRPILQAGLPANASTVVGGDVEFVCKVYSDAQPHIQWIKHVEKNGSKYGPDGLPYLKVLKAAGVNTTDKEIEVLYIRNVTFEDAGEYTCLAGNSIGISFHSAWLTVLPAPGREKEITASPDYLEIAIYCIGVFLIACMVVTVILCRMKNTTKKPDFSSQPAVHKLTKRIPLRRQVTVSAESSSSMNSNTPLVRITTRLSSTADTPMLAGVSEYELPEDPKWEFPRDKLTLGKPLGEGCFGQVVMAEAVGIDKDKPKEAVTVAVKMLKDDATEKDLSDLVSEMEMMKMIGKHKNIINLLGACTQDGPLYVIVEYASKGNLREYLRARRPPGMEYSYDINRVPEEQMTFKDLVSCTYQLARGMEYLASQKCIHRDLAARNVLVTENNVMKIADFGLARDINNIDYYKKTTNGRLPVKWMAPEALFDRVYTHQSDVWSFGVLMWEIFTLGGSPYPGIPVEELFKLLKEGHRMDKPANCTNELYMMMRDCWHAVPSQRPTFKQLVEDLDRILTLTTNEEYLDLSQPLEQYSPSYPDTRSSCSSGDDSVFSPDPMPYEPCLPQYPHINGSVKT
# [28] = system: SW480; experiment: Anti-migration activity in human SW480 cells assessed as change in FAK expression at 3 to 12 uM by Western blotting analysis; assay type: functional, cell-based; settings: dose 3-12 µM
# [29] = system: SW480; experiment: Induction of cell cycle arrest in human SW480 cells assessed as downregulation of CDC2 expression at 1.5 to 6 uM by immunoblotting analysis; assay type: functional, cell-based; settings: dose 1.5-6 µM
# [30] = system: HCT-116; experiment: Antiproliferative activity against human HCT-116 cells assessed as inhibition of cell growth incubated for 48 hrs by EdU staining method; assay type: functional, cell-based
# [31] = system: SW480; experiment: Induction of cell cycle arrest in human SW480 cells assessed as accumulation of cells at G2/M phase incubated for 48 hrs by propidium iodide staining based flow cytometry; assay type: functional
# [32] = system: SW480; experiment: Induction of apoptosis in human SW480 cells assessed as downregulation of ratio of Bcl-2/Bax expression at 3 to 12 uM incubated for 48 hrs by Western blotting analysis; assay type: functional, cell-based; settings: dose 3-12 µM
# [33] = system: HCT-116; experiment: Antitumor activity against human HCT-116 cells xenografted in BALB/c mouse assessed as chromatin condensation at 10 mg/kg,ip administrated for 2 weeks by hematoxylin and eosin staining based analysis; assay type: functional, organism-based
# [34] = Toxicity in BALB/c mouse xenografted with human HCT-116 cells assessed as change in body weight at 10 mg/kg,ip administrated for 2 weeks; assay type: organism-based; settings: in vivo, 336 h
# [35] = system: RKO; experiment: Induction of apoptosis in human RKO cells assessed as downregulation of ratio of Bcl-2/Bax expression at 3 to 12 uM incubated for 48 hrs by Western blotting analysis; assay type: functional, cell-based; settings: dose 3-12 µM
# [36] = Toxicity in ICR mouse assessed as change in spleen weight at 60 mg/kg,po administrated for 1 week; assay type: organism-based; settings: in vivo, 168 h, time 1 weeks
# [37] = system: RKO; experiment: Induction of cell cycle arrest in human RKO cells assessed as accumulation of cells at G2/M phase incubated for 48 hrs by propidium iodide staining based flow cytometry; assay type: functional
# [38] = system: HCT-116; experiment: Induction of cell cycle arrest in human HCT-116 cells assessed as downregulation of CDC2 expression at 1.5 to 6 uM by immunoblotting analysis; assay type: functional, cell-based; settings: dose 1.5-6 µM
# [39] = system: SW480; experiment: Anti-migration activity in human SW480 cells assessed as downregulation of FAK phosphorylation by Western blotting analysis; assay type: functional, cell-based
# [40] = Toxicity in ICR mouse assessed as change in lung weight at 60 mg/kg,po administrated for 1 week; assay type: organism-based; settings: in vivo, 168 h, time 1 weeks
smiles,measurement,setting,value
C=CC(=O)NCCCn1c(=O)c(-c2c(Cl)c(OC)cc(OC)c2Cl)cc2cnc(Nc3c(C)cccc3NC(=O)C=C)cc21,Activity,[1],Non-Toxic
same,Activity,[2],Non-Toxic
same,Activity,[3],Non-Toxic
same,Activity,[4],Non-Toxic
same,IC50,[5],643 nM
same,inhibition in vivo at 20 mg/kg,[6],70.5%
same,Activity,[7],Active
same,IC50,[8],9.48 nM
same,Activity,[9],Dose-Dependent Effect
same,Activity,[10],Non-Toxic
same,Activity,[11],Non-Toxic
same,Activity,[12],Non-Toxic
same,Activity,[13],0.64%
same,IC50,[14],4240 nM
same,IC50 at 48 h,[15],23800 nM
same,Activity,[16],Active
same,Activity,[17],inactive
same,Activity,[18],Non-Toxic
same,Activity,[19],Active
same,Activity,[20],Dose-Dependent Effect
same,Activity,[21],Active
same,Activity,[22],Non-Toxic
same,IC50,[23],225 nM
same,Activity,[24],Non-Toxic
same,Activity,[25],Active
same,Activity,[26],Active
same,IC50,[27],528 nM
same,Activity,[28],inactive
same,Activity,[29],Active
same,Activity,[30],Dose-Dependent Effect
same,Activity,[31],Dose-Dependent Effect
same,Activity,[32],Active
same,Activity,[33],Active
same,Activity,[34],Non-Toxic
same,Activity,[35],Active
same,Activity,[36],Non-Toxic
same,Activity,[37],Dose-Dependent Effect
same,Activity,[38],Active
same,Activity,[39],Dose-Dependent Effect
same,Activity,[40],Non-Toxic
